Tested on: HuVEC cells
Assay: VEGF-induced tube formation assay
Assay type: cell-based, human
Settings: VEGF (50 ng/ml), sulforaphane 5 uM
Experimental: The tube formation assay is an in vitro a model of angiogenesis commonly used to measure the ability of endothelial cells to form “tubes” (i.e. three-dimensional structures that resemble vessel walls). Tube formation studies were conducted in a 96-well plate format using an in vitro angiogenesis assay kit from Trevigen Inc. (Trevigen, Gaithersburg, Md.). Prior to tube formation assay, Huvec cells were starved overnight in EGM-2 basal medium in the culture dish. […] The cells were harvested and counted, and a single cell suspension at 1×10^6 cells/ml was prepared. […] Tube formation was visualized using a fluorescence microscope (485 nm excitation/520 nm emission) at 200× total magnification. Numbers of branch points were counted for each of six randomly chosen fields, and then averaged for each condition. […] Statistical significance was determined using student t-test.
The tube formation was quantified and expressed as mean number of branching points per viewing field as shown in FIG. 5F for the high dose treatment using nanoparticles of ZnMoS4.
The Huvec cells were harvested, counted, and diluted in EBM-2 basal medium in the presence (Panels B-E) or absence (Panels A) of VEGF (50 ng/ml) and ZnMoS4 NPs at 50 ng/ml (Panel C) and 10 ng/ml (Panel D). […] F. Quantitative assessment of the tube formation was done by counting the average number of branch points per viewing field. […]

For C[S+]([O-])CCCCN=C=S (stereo not shown) [sulforaphane], the tube formation was “prevented tube formation”.

From patent US20160220500A1, “Targeting Intracellular Copper Ions for Inhibiting Angiogenesis Using Nanoparticles of Ternary Inorganic Metal Sulfide M1M2S4 (M1, independently, is Mg, Ca, Mn, Fe, or Zn; M2 = Mo or W) Compounds to Treat Metastatic Cancer” (KENT STATE UNIVERSITY, priority 2014, published 2016)
